From ChEMBL document CHEMBL1150892, “Kalkipyrone, a toxic gamma-pyrone from an assemblage of the marine cyanobacteria Lyngbya majuscula and Tolypothrix sp” (J Nat Prod, 1998) come the findings set out here.

The nature of data set [1]: Ichthyotoxicity in gold fish after 1 hr. As to conditions: carassius auratus, in vivo; read-out: LD50. In kind it is organism-based.
Data set [2] can be described thus: Toxicity in Artemia salina. In kind it is organism-based. As to conditions: in vivo, read-out: LD50 (the source's name).

Each structure is given as a SMILES string. Converted amounts (≈) assume the structure as drawn.

For `COc1oc(C/C=C(\C)C/C=C/C(C)=C/[C@@H](C)O)c(C)c(=O)c1C` [KALKIPYRONE], the LC50 at 1 h in data set [1] came to 2 µg/mL (≈ 6.02 µM). Moreover, the LC50 in data set [2] amounted to 1 µg/mL (≈ 3.01 µM).
